Laboratory results reported in PMC10491595, “Activation of the integrated stress response by inhibitors of its kinases” (Nature Communications, 2023).

How the values were obtained:
PERK = target: T1, PERK (Homo sapiens, UniProt Q9NZJ5); test: PERK activation (mobility shift) immunoblot in tunicamycin-treated HeLa cells; assay type: cell-based
T1 construct: gene EIF2AK3
T1 sequence (Q9NZJ5 30-1116): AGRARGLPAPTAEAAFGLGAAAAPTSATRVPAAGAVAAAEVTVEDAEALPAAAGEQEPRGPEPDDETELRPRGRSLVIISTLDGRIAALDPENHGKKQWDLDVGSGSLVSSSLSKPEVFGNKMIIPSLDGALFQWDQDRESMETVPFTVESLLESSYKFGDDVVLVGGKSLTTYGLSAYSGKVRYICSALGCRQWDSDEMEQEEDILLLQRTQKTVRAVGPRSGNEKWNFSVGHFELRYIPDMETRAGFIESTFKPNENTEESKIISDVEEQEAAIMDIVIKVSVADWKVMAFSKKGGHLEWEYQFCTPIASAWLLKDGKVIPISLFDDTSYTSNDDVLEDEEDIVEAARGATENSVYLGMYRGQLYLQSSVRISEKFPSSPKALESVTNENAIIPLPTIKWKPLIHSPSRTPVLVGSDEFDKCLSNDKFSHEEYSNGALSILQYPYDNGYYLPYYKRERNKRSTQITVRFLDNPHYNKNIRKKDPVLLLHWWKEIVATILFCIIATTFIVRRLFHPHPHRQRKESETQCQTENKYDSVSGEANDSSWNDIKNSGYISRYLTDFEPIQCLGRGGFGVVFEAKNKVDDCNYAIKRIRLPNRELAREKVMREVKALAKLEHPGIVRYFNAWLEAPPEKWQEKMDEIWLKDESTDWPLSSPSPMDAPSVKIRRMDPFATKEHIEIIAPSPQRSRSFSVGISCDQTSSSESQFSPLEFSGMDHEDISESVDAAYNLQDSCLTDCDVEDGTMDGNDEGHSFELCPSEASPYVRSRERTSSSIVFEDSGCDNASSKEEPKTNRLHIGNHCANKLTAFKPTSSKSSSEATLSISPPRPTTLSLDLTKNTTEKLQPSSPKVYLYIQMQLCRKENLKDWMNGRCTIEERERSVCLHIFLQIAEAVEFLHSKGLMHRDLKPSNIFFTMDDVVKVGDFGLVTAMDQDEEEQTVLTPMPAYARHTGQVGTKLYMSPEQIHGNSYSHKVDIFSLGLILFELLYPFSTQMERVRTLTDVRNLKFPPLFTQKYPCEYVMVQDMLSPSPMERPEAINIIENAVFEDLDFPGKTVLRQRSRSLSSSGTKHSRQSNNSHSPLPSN

GCN2 [1] = target: T2, GCN2 (Homo sapiens, UniProt Q9P2K8); test: in vitro kinase assay (Gaussian activation then inhibition); thermal shift of kinase domain; competition with A92; assay type: biochemical
T2 construct: gene EIF2AK4; GST-GCN2 fragment (192-1024)
T2 sequence (Q9P2K8 192-1024): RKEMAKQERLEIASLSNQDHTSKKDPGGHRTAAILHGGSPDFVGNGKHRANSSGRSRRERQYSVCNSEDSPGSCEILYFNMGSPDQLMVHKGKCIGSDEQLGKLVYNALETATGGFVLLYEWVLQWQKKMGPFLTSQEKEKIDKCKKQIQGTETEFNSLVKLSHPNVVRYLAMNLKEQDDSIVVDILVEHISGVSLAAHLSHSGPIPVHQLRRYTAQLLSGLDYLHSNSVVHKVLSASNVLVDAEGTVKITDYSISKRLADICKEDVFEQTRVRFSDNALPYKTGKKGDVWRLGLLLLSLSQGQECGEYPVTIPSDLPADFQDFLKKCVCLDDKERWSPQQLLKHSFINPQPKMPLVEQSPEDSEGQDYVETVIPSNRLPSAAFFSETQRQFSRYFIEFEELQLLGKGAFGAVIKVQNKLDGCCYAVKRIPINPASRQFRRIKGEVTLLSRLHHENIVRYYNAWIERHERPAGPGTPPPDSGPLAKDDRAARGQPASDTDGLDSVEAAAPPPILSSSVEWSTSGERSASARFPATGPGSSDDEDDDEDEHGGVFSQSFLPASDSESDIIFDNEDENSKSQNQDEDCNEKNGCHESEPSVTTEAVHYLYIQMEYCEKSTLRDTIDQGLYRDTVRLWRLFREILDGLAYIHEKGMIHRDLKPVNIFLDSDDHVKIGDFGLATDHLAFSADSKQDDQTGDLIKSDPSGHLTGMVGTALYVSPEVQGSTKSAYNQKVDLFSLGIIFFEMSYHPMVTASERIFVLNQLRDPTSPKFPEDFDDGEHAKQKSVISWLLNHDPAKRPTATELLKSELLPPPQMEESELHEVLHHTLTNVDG

GCN2 [2] = target: T2, GCN2; test: in vitro kinase assay; assay type: biochemical
[3] = target: the molecule itself; test: SEC-MALS; GST-GCN2 fragment at ~1.7 mg/ml, incubated 20 min at 30 °C with DMSO or 50 µM GSK'157; Superdex 200 Increase 10/300 GL, 10 mM HEPES, 150 mM NaCl, 1 mM TCEP with DMSO or 50 µM GSK'157; same result in both conditions

## Cc1cccc(CC(=O)N2CCc3c2ccc(-c2cn(C)c4ncnc(N)c24)c3F)n1 [GSK'157, GSK2656157]
PERK
  PERK activation (mobility shift) immunoblot in tunicamycin-treated HeLa cells: 0.02 to 10 µM
GCN2 [1]
  in vitro kinase assay (Gaussian activation then inhibition); thermal shift of ki: ~ 5 μM

## Nc1ncnc2c1ncn2[C@@H]1O[C@H](CO[P@](=O)(O)O[P@](=O)(O)NP(=O)(O)O)[C@@H](O)[C@H]1O [AMP-PNP]
GCN2 [2]
  in vitro kinase assay: ~ 250 μM

B1: in-house recombinant GST-GCN2 fragment (192-1024) (domain or fragment, UniProt Q9P2K8 192-1024, looked up)
chain: RKEMAKQERLEIASLSNQDHTSKKDPGGHRTAAILHGGSPDFVGNGKHRANSSGRSRRERQYSVCNSEDSPGSCEILYFNMGSPDQLMVHKGKCIGSDEQLGKLVYNALETATGGFVLLYEWVLQWQKKMGPFLTSQEKEKIDKCKKQIQGTETEFNSLVKLSHPNVVRYLAMNLKEQDDSIVVDILVEHISGVSLAAHLSHSGPIPVHQLRRYTAQLLSGLDYLHSNSVVHKVLSASNVLVDAEGTVKITDYSISKRLADICKEDVFEQTRVRFSDNALPYKTGKKGDVWRLGLLLLSLSQGQECGEYPVTIPSDLPADFQDFLKKCVCLDDKERWSPQQLLKHSFINPQPKMPLVEQSPEDSEGQDYVETVIPSNRLPSAAFFSETQRQFSRYFIEFEELQLLGKGAFGAVIKVQNKLDGCCYAVKRIPINPASRQFRRIKGEVTLLSRLHHENIVRYYNAWIERHERPAGPGTPPPDSGPLAKDDRAARGQPASDTDGLDSVEAAAPPPILSSSVEWSTSGERSASARFPATGPGSSDDEDDDEDEHGGVFSQSFLPASDSESDIIFDNEDENSKSQNQDEDCNEKNGCHESEPSVTTEAVHYLYIQMEYCEKSTLRDTIDQGLYRDTVRLWRLFREILDGLAYIHEKGMIHRDLKPVNIFLDSDDHVKIGDFGLATDHLAFSADSKQDDQTGDLIKSDPSGHLTGMVGTALYVSPEVQGSTKSAYNQKVDLFSLGIIFFEMSYHPMVTASERIFVLNQLRDPTSPKFPEDFDDGEHAKQKSVISWLLNHDPAKRPTATELLKSELLPPPQMEESELHEVLHHTLTNVDG
notes: GCN2 (eIF2alpha kinase 4), residues 192-1024; MW of the GST fusion ~135 kDa as printed; eluted with glutathione, no cleavage of GST is described; GST itself is known to dimerise, so the dimer may owe to the tag (my surmise); also called recombinant GCN2; source: Sf9 (baculovirus), purified (Glutathione Sepharose 4B, Superdex 200); not shown: GST, N-terminal, kept
[3]
  stoichiometry N: 2
